From PubChem BioAssay AID2060897 (Molecular Pharmacology Branch, DTP, NCI, 2025)

Test system: 966289-007-R4-J1-PDC complex spheroid viability
Assay: Anticancer human tumor 966289-007-R4-J1-PDC patient-derived pancreatic adenocarcinoma cell line growth inhibition [RAS]
Conditions: for IC50: curve of first compound; for viability, T/C: stronger effect = lower value; active = viability on the fitted dose curve at most 10% of control; inactive = the rest
Excerpt: RAS pathway inhibitors in Combinations in Complex Spheroids
A high-throughput screen of multi-cell type tumor spheroids was designed to identify active combinations of RAS pathway inhibitors and targeted small molecules. Complex spheroids include a stromal component modeled by human endothelial cells (HUVEC) and fibroblasts modeled by human mesenchymal stem cells (MSCs). The concentration ranges selected for each drug and investigational agent were based upon clinically achievable concentrations if the clinical Cmax of the agent was known.
Compounds. The drugs and investigational agents: abemaciclib (NSC768073), cobimetinib (NSC768068), divarasib (GDC6063, NSC841802), docetaxel (NSC628503), GDC-1971 (RLY-1971, NSC841576), gemcitabine (NSC613327), inavolisib (NSC800729), ipatasertib (NSC767898), KB-0742 (NSC834161), MRTX-1133 (NSC836407), osimertinib (NSC779217), RMC-4630 (NSC839698), RMC-6236 (NSC851965), RMC-6291 (NSC852671), Ro-3306 (NSC812927), sapanisertib (NSC764658), SN-38 (NSC673596), staurosporine (NSC755774), SY5609 (NSC837396), and tovorafenib (DAY101, NSC766906), were obtained from the National Cancer Institute (NCI) Developmental Therapeutics Program Chemical Repository. The FDA-approved anticancer drug set is available from the NCI Developmental Therapeutics Program. […] The stock solutions were prepared in dimethyl sulfoxide (DMSO, Sigma-Aldrich, St. Louis, MO, cat. D2650) at 800-fold the tested concentration and stored at -70 degrees C prior to their use. All drugs and investigational agents were tested over a range starting from a high concentration at or near the clinical Cmax and decreasing in half-log increments. If the clinical Cmax for an agent had not been determined, the highest concentration tested was 10 microM.
Cell Culture. All cells were maintained in an incubator at 37 degrees C and 5% CO2 with 95% humidity. The PDC lines were cultured according to standard operating procedures established by the NCI PDMR. All PDCs were thawed and cultured in Matrigel-coated flasks prepared with a working solution of 1X Ham's F-12 nutrient mix, without supplementation (Invitrogen, Waltham, MA, cat. 11765054), 100 U/mL penicillin-streptomycin (Invitrogen, cat. 15140122), and 2.5% Matrigel (Corning Inc., Corning, NY, cat. 354248) for the first three passages. The 362531-283-R-J2-PDC and 782815-120-R-J1-PDC lines were cultured in 6C/Colon 1B media, which includes advanced DMEM/F-12 (Thermo Fisher Scientific, cat. 12634028), 10 mM HEPES (Thermo Fisher Scientific, cat. 15630080), 1X GlutaMAX supplement (Thermo Fisher Scientific, cat. 35050061), 0.1 mg/mL primocin (InvivoGen, San Diego, CA, cat. ant-pm-2), 10% defined fetal bovine serum, heat inactivated (HyClone Laboratories Inc., Logan, UT, cat. SH30070.03HI), 50% L-WRN conditioned media (ATCC, cat. CRL-3276), 1.25 mM N-Acetyl-L-cysteine (Sigma-Aldrich, cat. A9165), 10 mM nicotinamide (Sigma-Aldrich, cat. N0636), 1X B-27 supplement (Thermo Fisher Scientific, cat. 17504044), 1X N-2 supplement (Thermo Fisher Scientific, cat. 17502048), 50 ng/mL human EGF (Thermo Fisher Scientific, cat. PHG0311), and 10 microM Y-27632 dihydrochloride (Tocris Bioscience, cat. 1254). The K12877-001-R-J1-PDC line was cultured in 6I media, which includes all 6C/Colon 1B media plus 10 ng/mL human FGF-10 (PeproTech, cat. 100-26), 1 ng/mL human FGF-2 (PeproTech, cat. 100-18B), 1 µM prostaglandin E2 (Tocris Bioscience, cat. 2296), […] hydrocortisone (Sigma-Aldrich, cat. H4001), and […] bovine insulin (Sigma-Aldrich, cat. I6634). The K86415-001-R-J1-PDC line was cultured in 6D media, which includes all 6C/Colon 1B media components minus the L-WRN conditioned media. The 485176-168-R4-J1-PDC was cultured in PANC media, which includes all 6C/Colon 1B media plus 100 ng/mL human FGF-10 (PeproTech, cat. 100-26), 500 nM SB-431542 (Selleckchem, cat. S1067), and 10 nM gastrin (Tocris Bioscience, cat. 3006). […]

[1] = second compound 0.0316 µM, first compound 0.0316 µM
[2] = second compound 0.0316 µM, first compound 0.1 µM
[3] = second compound 0.0316 µM, first compound 0.316 µM
[4] = second compound 0.0316 µM, first compound 1 µM
[5] = second compound 0.1 µM, first compound 0.0316 µM
[6] = second compound 0.1 µM, first compound 0.1 µM
[7] = second compound 0.1 µM, first compound 0.316 µM
[8] = second compound 0.1 µM, first compound 1 µM
[9] = second compound 0.316 µM, first compound 0.0316 µM
[10] = second compound 0.316 µM, first compound 0.1 µM
[11] = second compound 0.316 µM, first compound 0.316 µM
[12] = second compound 0.316 µM, first compound 1 µM
[13] = second compound 1 µM, first compound 0.0316 µM
[14] = second compound 1 µM, first compound 0.1 µM
[15] = second compound 1 µM, first compound 0.316 µM
[16] = second compound 1 µM, first compound 1 µM
[17] = second compound 3.16 µM, first compound 0.0316 µM
[18] = second compound 3.16 µM, first compound 0.1 µM
[19] = second compound 3.16 µM, first compound 0.316 µM
[20] = second compound 3.16 µM, first compound 1 µM
[21] = second compound 10 µM, first compound 0.0316 µM
[22] = second compound 10 µM, first compound 0.1 µM
[23] = second compound 10 µM, first compound 0.316 µM
[24] = second compound 10 µM, first compound 1 µM
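Also: spheroids exposed to agents for one week before readout.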
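For viability, T/C in this document: percent viability relative to DMSO vehicle control wells as 100%.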

CCN1CCN(Cc2ccc(Nc3ncc(F)c(-c4cc(F)c5nc(C)n(C(C)C)c5c4)n3)nc2)CC1 + C#Cc1c(F)ccc2cc(O)cc(-c3ncc4c(N5CC6CCC(C5)N6)nc(OCC56CCCN5CC(F)C6)nc4c3F)c12
inactive: viability, T/C (second compound 0.0316 µM, first compound 0.00316 µM) 121% | viability, T/C (second compound 0.0316 µM, first compound 0.01 µM) 102% | viability, T/C [1] 107% | viability, T/C [2] 92.8% | viability, T/C [3] 92.1% | viability, T/C [4] 71.8% | viability, T/C (second compound 0.1 µM, first compound 0.00316 µM) 113% | viability, T/C (second compound 0.1 µM, first compound 0.01 µM) 108% | viability, T/C [5] 102% | viability, T/C [6] 82.7% | viability, T/C [7] 92.8% | viability, T/C [8] 71.1% | viability, T/C (second compound 0.316 µM, first compound 0.00316 µM) 114% | viability, T/C (second compound 0.316 µM, first compound 0.01 µM) 112% | viability, T/C [9] 100% | viability, T/C [10] 95.9% | viability, T/C [11] 84.6% | viability, T/C [12] 69.9% | viability, T/C (second compound 1 µM, first compound 0.00316 µM) 104% | viability, T/C (second compound 1 µM, first compound 0.01 µM) 103% | viability, T/C [13] 116% | viability, T/C [14] 103% | viability, T/C [15] 79.4% | viability, T/C [16] 81.7% | viability, T/C (second compound 3.16 µM, first compound 0.00316 µM) 108% | viability, T/C (second compound 3.16 µM, first compound 0.01 µM) 109% | viability, T/C [17] 113% | viability, T/C [18] 93.3% | viability, T/C [19] 88.8% | viability, T/C [20] 77% | viability, T/C (second compound 10 µM, first compound 0.00316 µM) 108% | viability, T/C (second compound 10 µM, first compound 0.01 µM) 90.3% | viability, T/C [21] 121% | viability, T/C [22] 89.2% | viability, T/C [23] 93.4% | viability, T/C [24] 66%
> 1 µM: IC50 (second compound 0.0316 µM) | IC50 (second compound 0.1 µM) | IC50 (second compound 0.316 µM) | IC50 (second compound 1 µM) | IC50 (second compound 3.16 µM) | IC50 (second compound 10 µM)

C[C@@H](NC(=O)c1ncnc(N)c1Cl)c1ncc(C(=O)Nc2cc(C(F)(F)F)c(Cl)cn2)s1 + C#Cc1c(F)ccc2cc(O)cc(-c3ncc4c(N5CC6CCC(C5)N6)nc(OCC56CCCN5CC(F)C6)nc4c3F)c12
inactive: viability, T/C [1] 109% | viability, T/C [2] 118% | viability, T/C [3] 130% | viability, T/C [4] 119% | viability, T/C (second compound 0.0316 µM, first compound 3.16 µM) 117% | viability, T/C (second compound 0.0316 µM, first compound 10 µM) 86.8% | viability, T/C [5] 111% | viability, T/C [6] 114% | viability, T/C [7] 103% | viability, T/C [8] 106% | viability, T/C (second compound 0.1 µM, first compound 3.16 µM) 109% | viability, T/C (second compound 0.1 µM, first compound 10 µM) 95.7% | viability, T/C [9] 105% | viability, T/C [10] 126% | viability, T/C [11] 124% | viability, T/C [12] 111% | viability, T/C (second compound 0.316 µM, first compound 3.16 µM) 112% | viability, T/C (second compound 0.316 µM, first compound 10 µM) 75.7% | viability, T/C [13] 105% | viability, T/C [14] 123% | viability, T/C [15] 134% | viability, T/C [16] 130% | viability, T/C (second compound 1 µM, first compound 3.16 µM) 130% | viability, T/C (second compound 1 µM, first compound 10 µM) 87.6% | viability, T/C [17] 119% | viability, T/C [18] 110% | viability, T/C [19] 118% | viability, T/C [20] 122% | viability, T/C (second compound 3.16 µM, first compound 3.16 µM) 123% | viability, T/C (second compound 3.16 µM, first compound 10 µM) 86% | viability, T/C [21] 107% | viability, T/C [22] 108% | viability, T/C [23] 134% | viability, T/C [24] 125% | viability, T/C (second compound 10 µM, first compound 3.16 µM) 124% | viability, T/C (second compound 10 µM, first compound 10 µM) 91.3%
> 10 µM: IC50 (second compound 0.0316 µM) | IC50 (second compound 0.1 µM) | IC50 (second compound 0.316 µM) | IC50 (second compound 1 µM) | IC50 (second compound 3.16 µM) | IC50 (second compound 10 µM)
